Measured values from patent US20010031751A1, “Pharmaceuticals” (SmithKline Beecham p.l.c., priority 1997, published 2001).

What was measured:
5-HT4 receptor = target: T1, 5-HT4 receptor (Cavia porcellus, UniProt O70528); assay: 5-HT4 receptor antagonist activity: 5-HT-evoked contractions of guinea-pig distal colon longitudinal muscle-myenteric plexus (LMMP) preparations; conditions: mean ± SEM, n=7, antagonism of 5-HT dose response curve, 45 minutes incubation
T1 construct: Longitudinal muscle-myenteric plexus (LMMP) preparations, 2-3cm long, are obtained from the distal colon region; from tissue; host or cells: guinea-pig distal colon longitudinal muscle-myenteric plexus
T1 sequence (O70528 whole entry): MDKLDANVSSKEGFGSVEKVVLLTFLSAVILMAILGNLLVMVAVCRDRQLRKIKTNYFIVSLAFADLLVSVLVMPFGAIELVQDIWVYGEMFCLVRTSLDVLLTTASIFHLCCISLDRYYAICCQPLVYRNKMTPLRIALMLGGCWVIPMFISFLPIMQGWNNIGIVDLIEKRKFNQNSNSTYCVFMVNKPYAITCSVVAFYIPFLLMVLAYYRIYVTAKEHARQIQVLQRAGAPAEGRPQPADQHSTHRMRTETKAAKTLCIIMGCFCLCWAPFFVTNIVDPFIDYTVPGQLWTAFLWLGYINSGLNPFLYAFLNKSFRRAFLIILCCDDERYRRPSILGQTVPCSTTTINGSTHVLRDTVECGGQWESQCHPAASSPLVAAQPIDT
Procedure: 5-HT4 RECEPTOR ANTAGONIST ACTIVITY
Male Dunkin Hartley guinea-pigs, weighing 200-300 g are used. Longitudinal muscle-myenteric plexus (LMMP) preparations, 2-3cm long, are obtained from the distal colon region. These are suspended under a 0.5 g load in isolated tissue baths containing Krebs Henseleit solution (NaCl 118 mM, KCl 4.7mM KH2PO4 1.2mM MgSO4 7H2O 1.2mM, Glucose 11.1mM, NaHCO3 25mM, CaCl2 6H2O 2.5mM) bubbled with 5% CO2 in O2, maintained at 37° C. and containing 1uM Granisetron and 0.1uM Methiothepin to block 5HT3 and 5HT1-like receptors respectively. 100uM Pargyline is also added to the tissues at the start of the experiment. Tissues are left for 15 minutes to equilibrate and then exposed to 5-HT at 0.1uM every 15 minutes until a uniform response is achieved. Following a half hour period for tissues to stabilise, non-cumulative dose response curves to 5-HT are constructed in all tissues. When base-lines have returned to normal, test compounds are added in the reservoirs of the tissue set-ups and washed in to the tissues. Tissues are incubated with the antagonists for 45 minutes after which a second non-cumulative dose response curve to 5-HT is constructed.
To test for selectivity of action, compounds are tested for their ability to antagonise cholinergically-mediated contractions of the guinea-pig colon, evoked by the nicotinic receptor agonist. […]

[1] = system: DMPP-evoked contractions of the guinea-pig colon; assay: Selectivity test: cholinergically-mediated contractions of guinea-pig colon evoked by the nicotinic receptor agonist DMPP; conditions: selectivity of action
Procedure: To test for selectivity of action, compounds are tested for their ability to antagonise cholinergically-mediated contractions of the guinea-pig colon, evoked by the nicotinic receptor agonist. DMPP (1,1-dimethyl-4-phenyl-piperazinium iodide). For these experiments, tissues and equipment are set up as for the above, 5HT4 receptor experiments. After sensitization, non-cumulative dose response curves are constructed to DMPP. Test compounds are incubated with the tissues as above, and a second dose response curve to DMPP created. Results are given as mean pKB± SEM values for each antagonists.

## CCCCN1CCC(CNC(=O)c2c3n(c4ccccc24)C(O)CCO3)CC1 (racemic) [compound of formula (I), (±)-N-[(1-butyl-4-piperidinyl)methyl]-3,4-dihydro-4-hydroxy-2H-[1,3]oxazino[3,2-a]indole-10-carboxamide]
5-HT4 receptor
  Kb: 3.39 nM
[1]
  effect on DMPP-evoked contractions: did not significantly affect DMPP-evoked contractions
